Non-standard residues stand in square brackets, D forms with d. No end group written: not given here. Dap = NC[C@H](N)C(=O)O

One series has as its system HEK293 cells. Description: Cell viability, CellTiter Glo 2.0, HEK293. Type of series: cell-based. The following applies: 100 μM, 12 hours, CellTiter Glo 2.0, three independent experiments.
For a further series, the system named is HaloTag protein in cells. Description: Time-resolved CAPA. Type of series: cell-based. As to conditions: 5μM MP1 and 1.62μM JQ1; reproduced in two independent experiments.
In series [1] the test system is Cells that express the HaloTag protein. As to conditions: CAPA; ratio of CP50 to that of JQ-1-Ct.
For series [2], the system named is MCF-7 breast cancer cells. Description: Cell viability assay for MCF-7, CellTiter Glo 2.0. It is filed as cell-based. The following applies: MCF-7 cells, 48 h; positive control compared with MP23.

For the compound “[Dap]AWFK-NH2 (also: sidechain bridge or staple (positions not given here)) [MP1-Ct]”, in the series with HEK293 cells, the “effect on the viability of HEK293 cells” value is given as “no effect”. Also, the “kinetics of HaloTag protein alkylation, time-resolved CAPA” value in the series with HaloTag protein in cells is recorded as “relatively rapid”. The “fold higher (poorer) CP50 than JQ-1-Ct” value in series [1] stood at 3.4 fold.

Consider `CC(C)[C@@H](CS(=O)(=O)C(C)C)N1C(=O)[C@@](C)(CC(=O)O)C[C@H](c2cccc(Cl)c2)[C@H]1c1ccc(Cl)cc1` [Navtemadlin], for which, in series [2], the “potency relative to MP23, MCF-7 viability” value is recorded as “about ten-fold more potent”.
